{"source": "patent US10864193B2", "about": "“Parasiticidal compositions comprising fipronil at high concentrations” (BOEHRINGER INGELHEIM ANIMAL HEALTH USA INC., priority 2014, dated 2020)", "origin": "cited, not measured here", "details": "beagle dogs, spot-on administration, 14C radiolabeled drug"}
{"compound": "N#Cc1nn(-c2c(Cl)cc(C(F)(F)F)cc2Cl)c(N)c1[S+]([O-])C(F)(F)F", "note": "(stereo not shown) [fipronil, 5-amino-3-cyano-1-(2,6-dichloro-4-trifluoromethylphenyl)-4-trifluoromethylsulfinylpyrazole]", "values": [{"measurement": "time persistently detected in the whole skin after treatment", "value": "up to 56 days"}]}
